The values below come from ChEMBL document CHEMBL1149578, “Design, synthesis, and discovery of stilbene derivatives based on lithospermic acid B as potent protein tyrosine phosphatase 1B inhibitors” (Bioorg Med Chem Lett, 2007).

Active and inactive are the calls of the source. The rule behind the calls is not given here.

The target of one assay is T1, Tyrosine-protein phosphatase non-receptor type 1 (Homo sapiens, UniProt P18031).
T1 sequence (P18031 whole entry): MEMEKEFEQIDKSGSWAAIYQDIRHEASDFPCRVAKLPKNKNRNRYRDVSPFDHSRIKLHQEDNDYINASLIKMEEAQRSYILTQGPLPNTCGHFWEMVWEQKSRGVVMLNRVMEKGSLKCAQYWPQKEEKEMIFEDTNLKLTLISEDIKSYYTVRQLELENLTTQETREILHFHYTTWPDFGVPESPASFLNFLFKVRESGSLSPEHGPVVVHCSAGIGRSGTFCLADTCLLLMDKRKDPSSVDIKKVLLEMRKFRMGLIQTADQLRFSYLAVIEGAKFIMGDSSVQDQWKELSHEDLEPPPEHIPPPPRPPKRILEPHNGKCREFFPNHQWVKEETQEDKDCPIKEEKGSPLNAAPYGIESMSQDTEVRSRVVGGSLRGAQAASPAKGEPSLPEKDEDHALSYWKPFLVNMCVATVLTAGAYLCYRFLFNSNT
The assay can be described thus: (§1) Inhibition of PTP1B by colorimetric assay.
Consider `O=[N+]([O-])c1ccc(/C=C/c2ccc(O)c(O)c2)c([N+](=O)[O-])c1`, for which the IC50 – broadly, the point on the concentration scale where inhibition reaches its midpoint – is 190 µM. Same read-out and setting: the figure for `OCc1ccc(/C=C\c2ccc(O)c(O)c2)cc1` is 138 µM; for `COC(=O)/C=C/c1ccc(/C=C/c2ccc(O)c(O)c2)cc1` it is 14.9 µM.

`O=[N+]([O-])c1ccc(/C=C/c2cccc(O)c2O)c([N+](=O)[O-])c1` showed an IC50 of 168 µM.

The molecule `COC(=O)c1ccc(/C=C/c2ccc(O)c(O)c2)cc1` gave an IC50 of 25.6 µM. Still for that read-out and setting: as for `O=C(Nc1ccccc1)c1ccc(/C=C/c2ccc(O)c(O)c2)cc1`, the figure is 27.2 µM; as for `CCCCCCCCCCCCCCCC(=O)C1=C(O)[C@@H](CO)OC1=O`, 45 µM.

Consider `O=C(NCC1CCCO1)c1ccc(/C=C/c2ccc(O)c(O)c2)cc1` (stereo unspecified), for which the concentration for half-maximal inhibition (IC50) was determined as 35.4 µM. In turn, `O=Cc1ccc(/C=C/c2ccc(O)c(O)c2)cc1` had an IC50 of 101 µM. Consider `OCc1ccc(/C=C/c2ccc(O)c(O)c2)cc1`, for which the midpoint of inhibition, the IC50, lay at 260 µM.

The next assay has as its target T2, Tyrosine-protein phosphatase non-receptor type 1 (Homo sapiens) (UniProt P18031).
T2 sequence (whole entry): T1 sequence (P18031 whole entry)
Described as §1.
In the case of `C(=C/c1ccccc1)/c1ccccc1`, the outcome was inactive. As for `COC(=O)C=Cc1ccc(/C=C\c2ccc(O)c(O)c2)cc1`, the outcome was inactive.

As to `COc1ccc(/C=C/c2ccc(O)cc2)cc1OC`, the result was inactive.

As to `COc1cc(/C=C/C(=O)CC(=O)/C=C/c2ccc(O)c(OC)c2)ccc1O`, the result was inactive.

For `O=[N+]([O-])c1ccc(/C=C/c2cccc(O)c2)c([N+](=O)[O-])c1`, the result was inactive. Consider `O=C(O)/C=C/c1ccc(O)c(O)c1`, for which the result was inactive. On to `O=C(/C=C/c1ccc(O)c(O)c1)Nc1ccccc1`, for which the result was inactive. The same measure, in the same setting: the entry for `O=C(NCC1CCCO1)c1ccc(/C=C\c2ccc(O)c(O)c2)cc1` (stereo unspecified) is “inactive”; for `COC(=O)c1ccc(/C=C/c2ccc(OC)c(OC)c2)cc1` it is “inactive”. With `CCN(CC)C(=O)/C=C/c1ccc(O)c(O)c1`, the result was inactive. In the case of `COC(=O)/C=C/c1ccc(/C=C/c2ccc(OC)c(OC)c2)cc1`, the result was inactive.
